How the values were obtained:
Assay type in all cases: cell-based
[1] = test system: HTT mRNA; assay: Splicing RT-qPCR assay (THP), Table 2A; conditions: Table 2A (THP); for AC50: AJ mRNA increase, read-out: HTT AJ (increase in alternative junction mRNA, AC50); for IC50: CJ mRNA decrease, read-out: HTT CJ (decrease in canonical junction mRNA, IC50)
[2] = test system: MYB mRNA; assay: Splicing RT-qPCR assay (THP), Table 2A; conditions: Table 2A (THP); for AC50: AJ mRNA increase, read-out: MYB AJ (increase in alternative junction mRNA, AC50); for IC50: CJ mRNA decrease, read-out: MYB CJ (decrease in canonical junction mRNA, IC50)
[3] = test system: HTT mRNA; assay: Gene panel canonical junction qPCR assay, decrease in CJ mRNA, Table 3; conditions: decrease in canonical junction (CJ) mRNA, gene panel qPCR, Table 3
In short: (§1)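 Eleven-point dose responses from 10 uM final, 24 h, DMSO ≤0.25%, in A673 or K562 cells. Relative quantification by 2^(−ΔΔCt) against housekeeper and vehicle was converted to percent response over fixed ΔCt windows and fitted to yield IC50.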

[4] = test system: MYB mRNA; assay: as above; conditions: decrease in canonical junction (CJ) mRNA, gene panel qPCR, Table 3
In short: as §1

[5] = test system: SMN2 mRNA; assay: as above; conditions: decrease in canonical junction (CJ) mRNA, gene panel qPCR, Table 3
In short: as §1

[6] = test system: SH-SY5Y (human neuroblastoma) cells; assay: Cell viability, Cell Titer Glo 2.0 assay; conditions: read-out: Viability SHSY5Y.3 GI50
In short: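 Following a 72 h incubation (37 °C, 5% CO2, 0.1% DMSO final), compound toxicity toward SH-SY5Y cells was quantified by CellTiter-Glo 2.0.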

SMILES | AC50 [1] | IC50 [1] | AC50 [2] | IC50 [2] | IC50 [3] | IC50 [4] | IC50 [5] | GI50 [6]
Cc1nc2c(F)cc(NC(=O)c3ccc(N4CCC(NC5CC5)CC4)c4cn(C)nc34)cn2c1C [Compound 189, 4-[4-(cyclopropylamino)-1-piperidyl]-N-(8-fluoro-2,3-dimethyl-imidazo[1,2-a]pyridin-6-yl)-2-methyl-indazole-7-carboxamide] | 100 to 1000 nM | > 10000 nM | > 10000 nM | > 10000 nM | > 10000 nM | > 10000 nM | > 10000 nM | 100 to 1000 nM
CCNC1CCN(c2ccc(C(=O)Nc3cc4cn(C)nc4cc3O)c3[nH]ccc23)CC1 [Compound 190, 4-[4-(ethylamino)-1-piperidyl]-N-(6-hydroxy-2-methyl-indazol-5-yl)-1H-indole-7-carboxamide] | > 10000 nM | > 10000 nM | > 10000 nM | > 10000 nM | > 10000 nM | > 10000 nM | > 10000 nM | > 10000 nM
Cc1cn2cc(NC(=O)c3ccc(N4CCC(NC5CC5)CC4)c4ccoc34)cc(F)c2n1 [Compound 191, 4-[4-(cyclopropylamino)-1-piperidyl]-N-(8-fluoro-2-methyl-imidazo[1,2-a]pyridin-6-yl) benzofuran-7-carboxamide] | 1000 to 10000 nM | 1000 to 10000 nM | < 100 nM | 100 to 1000 nM | 1000 to 10000 nM | 100 to 1000 nM | < 100 nM | 100 to 1000 nM
Cc1cn2cc(NC(=O)c3ccc(C4CCC(NC5CC5)CC4)c4cn(C)nc34)cc(F)c2n1 (stereo not drawn) [Compound 192, 4-[4-(cyclopropylamino)cyclohexyl]-N-(8-fluoro-2-methyl-imidazo[1,2-a]pyridin-6-yl)-2-methyl-indazole-7-carboxamide] | 1000 to 10000 nM | 1000 to 10000 nM | 100 to 1000 nM | 100 to 1000 nM | 100 to 1000 nM | 100 to 1000 nM | < 100 nM | 100 to 1000 nM
CCNC1CCN(c2ccc(C(=O)Nc3cc(F)c4nc(CO)cn4c3)c3nn(C)cc23)CC1 [Compound 193, 4-[4-(ethylamino)-1-piperidyl]-N-[8-fluoro-2-(hydroxymethyl)imidazo[1,2-a]pyridin-6-yl]-2-methyl-indazole-7-carboxamide] | 1000 to 10000 nM | 1000 to 10000 nM | 100 to 1000 nM | 100 to 1000 nM | > 10000 nM | 100 to 1000 nM | < 100 nM | 1000 to 10000 nM
Cc1cn2cc(NC(=O)c3ccc(C4CNCCO4)c4[nH]cnc34)cc(F)c2n1 (stereo not drawn) [Compound 194, N-(8-fluoro-2-methyl-imidazo[1,2-a]pyridin-6-yl)-7-morpholin-2-yl-1H-benzimidazole-4-carboxamide] | > 10000 nM | 1000 to 10000 nM | 100 to 1000 nM | 100 to 1000 nM | 1000 to 10000 nM | 100 to 1000 nM | < 100 nM | 1000 to 10000 nM
CCNC1CCN(c2cc(F)c(C(=O)Nc3cc(F)c4nc(C)cn4c3)c3ccoc23)CC1 [Compound 195, 7-[4-(ethylamino)-1-piperidyl]-5-fluoro-N-(8-fluoro-2-methylimidazo[1,2-a]pyridin-6-yl)-benzofuran-4-carboxamide] | > 10000 nM | > 10000 nM | > 10000 nM | > 10000 nM | > 10000 nM | > 10000 nM | 1000 to 10000 nM | 1000 to 10000 nM
CCNC1CCN(c2ccc(C(=O)Nc3cc(F)c4nc(C)cn4c3)c3nn(C)nc23)CC1 [Compound 196, 7-[4-(ethylamino)piperidin-1-yl]-N-(8-fluoro-2-methyl-imidazo[1,2-a]pyridin-6-yl)-2-methyl-1,2,3-benzotriazole-4-carboxamide] | 100 to 1000 nM | 100 to 1000 nM | 100 to 1000 nM | 100 to 1000 nM | 100 to 1000 nM | 100 to 1000 nM | < 100 nM | 1000 to 10000 nM
CNC1(C)CCN(c2ccc(C(=O)Nc3cn4cc(C)nc4c(OC)n3)c3nn(C)cc23)CC1 [Compound 197, N-(8-methoxy-2-methylimidazo[1,2-a]pyrazin-6-yl)-2-methyl-4-(4-methyl-4-(methylamino)piperidin-1-yl)-2H-indazole-7-carboxamide] | < 100 nM | < 100 nM | < 100 nM | < 100 nM | < 100 nM | < 100 nM | < 100 nM | < 100 nM
CCNC1CCN(c2ccc(C(=O)Nc3cc(F)c4nc(C)cn4c3)c3c2nnn3C)CC1 [Compound 198, 4-(4-(ethylamino)piperidin-1-yl)-N-(8-fluoro-2-methylimidazo[1,2-a]pyridin-6-yl)-1-methyl-1H-benzo[d][1,2,3]triazole-7-carboxamide 2,2,2-trifluoroacetate] | > 10000 nM | > 10000 nM | > 10000 nM | > 10000 nM | > 10000 nM | > 10000 nM | > 10000 nM | > 10000 nM
CCNC1CCN(c2ccc(C(=O)Nc3cc(F)c4nc(C)cn4c3)c3nnn(C)c23)CC1 [Compound 199, 7-[4-(ethylamino)-1-piperidyl]-N-(8-fluoro-2-methylimidazo[1,2-a]-pyridin-6-yl)-1-methylbenzotriazole-4-carboxamide] | > 10000 nM | > 10000 nM | 100 to 1000 nM | 100 to 1000 nM | > 10000 nM | 100 to 1000 nM | < 100 nM | 1000 to 10000 nM
CCNC1CCN(c2ccc(C(=O)Nc3cc(F)c4nc(C)oc4c3)c3nn(C)cc23)CC1 [Compound 200, 4-(4-(ethylamino)piperidin-1-yl)-N-(4-fluoro-2-methylbenzo[d]-oxazol-6-yl)-2-methyl-2H-indazole-7-carboxamide] | 1000 to 10000 nM | 100 to 1000 nM | < 100 nM | < 100 nM | 100 to 1000 nM | 100 to 1000 nM | < 100 nM | 100 to 1000 nM
CCNC1CCN(c2ccc(C(=O)Nc3cc(F)c4nc(CC)cn4c3)c3nn(C)cc23)CC1 [Compound 201, 4-[4-(ethylamino)-1-piperidyl]-N-(2-ethyl-8-fluoro-imidazo[1,2-a]pyridin-6-yl)-2-methyl-indazole-7-carboxamide] | 1000 to 10000 nM | 1000 to 10000 nM | 1000 to 10000 nM | 1000 to 10000 nM | 1000 to 10000 nM | 1000 to 10000 nM | 100 to 1000 nM | 1000 to 10000 nM
CCNC1CCN(c2ccc(C(=O)Nc3cc(F)c4nc(CF)cn4c3)c3nn(C)cc23)CC1 [Compound 202, 4-[4-(ethylamino)-1-piperidyl]-N-[8-fluoro-2-(fluoromethyl)imidazo[1,2-a]pyridin-6-yl]-2-methyl-indazole-7-carboxamide] | 100 to 1000 nM | 1000 to 10000 nM | < 100 nM | < 100 nM | 1000 to 10000 nM | < 100 nM | < 100 nM | 100 to 1000 nM
Cc1cn2cc(NC(=O)c3ccc(N4CCC(NC5CC56CC6)CC4)c4cn(C)nc34)cc(F)c2n1 (stereo not drawn) [Compound 203, N-(8-fluoro-2-methyl-imidazo[1,2-a]-pyridin-6-yl)-2-methyl-4-[4-(spiro[2.2]pentan-2-ylamino)-1-piperidyl] indazole-7-carboxamide] | 100 to 1000 nM | 100 to 1000 nM | < 100 nM | < 100 nM | 100 to 1000 nM | < 100 nM | < 100 nM | 100 to 1000 nM
